Values after ≈ are worked out from the molar mass of the structure shown.
Legend:
Staphylococcus aureus [1] = test: Antimicrobial activity against methicillin-resistant Staphylococcus aureus clinical isolate 3506 after 20 hrs by two-fold serial dilution technique; assay type: functional; settings: isolate 3506, 20 h
Staphylococcus aureus [2] = test: Antimicrobial activity against Staphylococcus aureus RN4220 after 20 hrs by two-fold serial dilution technique; assay type: functional; settings: RN4220, 20 h
Escherichia coli [3] = test: Antimicrobial activity against Escherichia coli CCARM 1356 after 20 hrs by two-fold serial dilution technique; assay type: functional; settings: CCARM 1356, 20 h
Escherichia coli [4] = test: Antimicrobial activity against Escherichia coli KCTC 1924 after 20 hrs by two-fold serial dilution technique; assay type: functional; settings: KCTC 1924, 20 h
Pseudomonas aeruginosa [5] = test: Antimicrobial activity against Pseudomonas aeruginosa 2004 after 20 hrs by two-fold serial dilution technique; assay type: functional; settings: Pseudomonas aeruginosa, 2004, 20 h
Streptococcus mutans = test: Antimicrobial activity against Streptococcus mutans 3065 after 20 hrs by two-fold serial dilution technique; assay type: functional; settings: Streptococcus mutans, 3065, 20 h
Salmonella typhimurium [6] = test: Antimicrobial activity against Salmonella typhimurium 2421 after 20 hrs by two-fold serial dilution technique; assay type: functional, Salmonella enterica subsp. enterica serovar Typhimurium; settings: Salmonella enterica, 2421, 20 h
Staphylococcus aureus [7] = test: Antimicrobial activity against quinolone-resistant Staphylococcus aureus clinical isolate 3519 after 20 hrs by two-fold serial dilution technique; assay type: functional; settings: isolate 3519, 20 h
Salmonella typhimurium [8] = test: Antimicrobial activity against Salmonella typhimurium 1926 after 20 hrs by two-fold serial dilution technique; assay type: functional, Salmonella enterica subsp. enterica serovar Typhimurium; settings: Salmonella enterica, 1926, 20 h
Staphylococcus aureus [9] = test: Antimicrobial activity against Staphylococcus aureus 503 after 20 hrs by two-fold serial dilution technique; assay type: functional; settings: Staphylococcus aureus, 503, 20 h
Staphylococcus aureus [10] = test: Antimicrobial activity against quinolone-resistant Staphylococcus aureus clinical isolate 3505 after 20 hrs by two-fold serial dilution technique; assay type: functional; settings: isolate 3505, 20 h
Staphylococcus aureus [11] = test: Antimicrobial activity against methicillin-resistant Staphylococcus aureus clinical isolate 3167 after 20 hrs by two-fold serial dilution technique; assay type: functional; settings: isolate 3167, 20 h
Candida albicans = test: Antimicrobial activity against Candida albicans 7535 after 20 hrs by two-fold serial dilution technique; assay type: functional; settings: Candida albicans, 7535, 20 h
Pseudomonas aeruginosa [12] = test: Antimicrobial activity against Pseudomonas aeruginosa 2742 after 20 hrs by two-fold serial dilution technique; assay type: functional; settings: Pseudomonas aeruginosa, 2742, 20 h
Staphylococcus aureus [13] = test: Antimicrobial activity against Staphylococcus aureus 209 after 20 hrs by two-fold serial dilution technique; assay type: functional; settings: Staphylococcus aureus, 209, 20 h

O=C1CSC(=S)N1Cc1nnc(-c2ccc(Br)cc2)o1
MIC (Staphylococcus aureus [1]): 64 µg/mL (≈ 173 µM) | MIC (Staphylococcus aureus [2]): 64 µg/mL (≈ 173 µM) | MIC (Escherichia coli [3]): > 128 µg/mL | MIC (Escherichia coli [4]): 64 µg/mL (≈ 173 µM) | MIC (Pseudomonas aeruginosa [5]): > 128 µg/mL | MIC (Streptococcus mutans): 16 µg/mL (≈ 43.2 µM) | MIC (Salmonella typhimurium [6]): 128 µg/mL (≈ 346 µM) | MIC (Staphylococcus aureus [7]): 64 µg/mL (≈ 173 µM) | MIC (Salmonella typhimurium [8]): 64 µg/mL (≈ 173 µM) | MIC (Staphylococcus aureus [9]): 64 µg/mL (≈ 173 µM) | MIC (Staphylococcus aureus [10]): 64 µg/mL (≈ 173 µM) | MIC (Staphylococcus aureus [11]): 64 µg/mL (≈ 173 µM) | MIC (Candida albicans): 64 µg/mL (≈ 173 µM) | MIC (Pseudomonas aeruginosa [12]): > 128 µg/mL | MIC (Staphylococcus aureus [13]): 64 µg/mL (≈ 173 µM)

O=C(O)c1ccc(/C=C2\SC(=S)N(Cc3nnc(-c4cccc(Cl)c4)o3)C2=O)cc1
MIC (Staphylococcus aureus [1]): 32 µg/mL (≈ 69.9 µM) | MIC (Staphylococcus aureus [2]): 8 µg/mL (≈ 17.5 µM) | MIC (Escherichia coli [3]): > 128 µg/mL | MIC (Escherichia coli [4]): > 128 µg/mL | MIC (Pseudomonas aeruginosa [5]): > 128 µg/mL | MIC (Streptococcus mutans): 16 µg/mL (≈ 34.9 µM) | MIC (Salmonella typhimurium [6]): > 128 µg/mL | MIC (Staphylococcus aureus [7]): 16 µg/mL (≈ 34.9 µM) | MIC (Salmonella typhimurium [8]): > 128 µg/mL | MIC (Staphylococcus aureus [9]): 16 µg/mL (≈ 34.9 µM) | MIC (Staphylococcus aureus [10]): 16 µg/mL (≈ 34.9 µM) | MIC (Staphylococcus aureus [11]): 8 µg/mL (≈ 17.5 µM) | MIC (Candida albicans): > 64 µg/mL | MIC (Pseudomonas aeruginosa [12]): > 128 µg/mL | MIC (Staphylococcus aureus [13]): 16 µg/mL (≈ 34.9 µM)

O=C1CSC(=S)N1Cc1nnc(-c2ccccc2Cl)o1
MIC (Staphylococcus aureus [1]): 32 µg/mL (≈ 98.2 µM) | MIC (Staphylococcus aureus [2]): 32 µg/mL (≈ 98.2 µM) | MIC (Escherichia coli [3]): > 128 µg/mL | MIC (Escherichia coli [4]): 16 µg/mL (≈ 49.1 µM) | MIC (Pseudomonas aeruginosa [5]): > 128 µg/mL | MIC (Streptococcus mutans): 16 µg/mL (≈ 49.1 µM) | MIC (Salmonella typhimurium [6]): 64 µg/mL (≈ 196 µM) | MIC (Staphylococcus aureus [7]): 32 µg/mL (≈ 98.2 µM) | MIC (Salmonella typhimurium [8]): 32 µg/mL (≈ 98.2 µM) | MIC (Staphylococcus aureus [9]): 32 µg/mL (≈ 98.2 µM) | MIC (Staphylococcus aureus [10]): 32 µg/mL (≈ 98.2 µM) | MIC (Staphylococcus aureus [11]): 32 µg/mL (≈ 98.2 µM) | MIC (Candida albicans): 64 µg/mL (≈ 196 µM) | MIC (Pseudomonas aeruginosa [12]): > 128 µg/mL | MIC (Staphylococcus aureus [13]): 16 µg/mL (≈ 49.1 µM)

O=C(O)c1ccc(/C=C2\SC(=S)N([C@@H](Cc3ccccc3)c3nnc(-c4cccc(Cl)c4)o3)C2=O)cc1
MIC (Staphylococcus aureus [1]): 4 µg/mL (≈ 7.3 µM) | MIC (Staphylococcus aureus [2]): 2 µg/mL (≈ 3.65 µM) | MIC (Escherichia coli [3]): > 128 µg/mL | MIC (Escherichia coli [4]): > 128 µg/mL | MIC (Pseudomonas aeruginosa [5]): > 128 µg/mL | MIC (Streptococcus mutans): 2 µg/mL (≈ 3.65 µM) | MIC (Salmonella typhimurium [6]): > 128 µg/mL | MIC (Staphylococcus aureus [7]): 4 µg/mL (≈ 7.3 µM) | MIC (Salmonella typhimurium [8]): > 128 µg/mL | MIC (Staphylococcus aureus [9]): > 64 µg/mL | MIC (Staphylococcus aureus [10]): 2 µg/mL (≈ 3.65 µM) | MIC (Staphylococcus aureus [11]): 2 µg/mL (≈ 3.65 µM) | MIC (Candida albicans): > 64 µg/mL | MIC (Pseudomonas aeruginosa [12]): > 128 µg/mL | MIC (Staphylococcus aureus [13]): > 64 µg/mL

Cc1cccc(-c2nnc([C@H](Cc3ccccc3)N3C(=O)/C(=C/c4ccc(C(=O)O)cc4)SC3=S)o2)c1
MIC (Staphylococcus aureus [1]): 4 µg/mL (≈ 7.58 µM) | MIC (Staphylococcus aureus [2]): 2 µg/mL (≈ 3.79 µM) | MIC (Escherichia coli [3]): > 128 µg/mL | MIC (Escherichia coli [4]): > 128 µg/mL | MIC (Pseudomonas aeruginosa [5]): > 128 µg/mL | MIC (Streptococcus mutans): 4 µg/mL (≈ 7.58 µM) | MIC (Salmonella typhimurium [6]): > 128 µg/mL | MIC (Staphylococcus aureus [7]): 4 µg/mL (≈ 7.58 µM) | MIC (Salmonella typhimurium [8]): > 128 µg/mL | MIC (Staphylococcus aureus [9]): > 64 µg/mL | MIC (Staphylococcus aureus [10]): 2 µg/mL (≈ 3.79 µM) | MIC (Staphylococcus aureus [11]): 2 µg/mL (≈ 3.79 µM) | MIC (Candida albicans): > 64 µg/mL | MIC (Pseudomonas aeruginosa [12]): > 128 µg/mL | MIC (Staphylococcus aureus [13]): > 64 µg/mL

Cc1ccccc1-c1nnc(CN2C(=O)CSC2=S)o1
MIC (Staphylococcus aureus [1]): 64 µg/mL (≈ 210 µM) | MIC (Staphylococcus aureus [2]): 32 µg/mL (≈ 105 µM) | MIC (Escherichia coli [3]): > 128 µg/mL | MIC (Escherichia coli [4]): 16 µg/mL (≈ 52.4 µM) | MIC (Pseudomonas aeruginosa [5]): > 128 µg/mL | MIC (Streptococcus mutans): 16 µg/mL (≈ 52.4 µM) | MIC (Salmonella typhimurium [6]): 128 µg/mL (≈ 419 µM) | MIC (Staphylococcus aureus [7]): 64 µg/mL (≈ 210 µM) | MIC (Salmonella typhimurium [8]): 32 µg/mL (≈ 105 µM) | MIC (Staphylococcus aureus [9]): 64 µg/mL (≈ 210 µM) | MIC (Staphylococcus aureus [10]): 32 µg/mL (≈ 105 µM) | MIC (Staphylococcus aureus [11]): 32 µg/mL (≈ 105 µM) | MIC (Candida albicans): 64 µg/mL (≈ 210 µM) | MIC (Pseudomonas aeruginosa [12]): > 128 µg/mL | MIC (Staphylococcus aureus [13]): 16 µg/mL (≈ 52.4 µM)

O=C1CSC(=S)N1Cc1nnc(-c2ccccc2F)o1
MIC (Staphylococcus aureus [1]): 64 µg/mL (≈ 207 µM) | MIC (Staphylococcus aureus [2]): 64 µg/mL (≈ 207 µM) | MIC (Escherichia coli [3]): > 128 µg/mL | MIC (Escherichia coli [4]): 32 µg/mL (≈ 103 µM) | MIC (Pseudomonas aeruginosa [5]): > 128 µg/mL | MIC (Streptococcus mutans): 32 µg/mL (≈ 103 µM) | MIC (Salmonella typhimurium [6]): 64 µg/mL (≈ 207 µM) | MIC (Staphylococcus aureus [7]): 64 µg/mL (≈ 207 µM) | MIC (Salmonella typhimurium [8]): 64 µg/mL (≈ 207 µM) | MIC (Staphylococcus aureus [9]): 64 µg/mL (≈ 207 µM) | MIC (Staphylococcus aureus [10]): 64 µg/mL (≈ 207 µM) | MIC (Staphylococcus aureus [11]): 64 µg/mL (≈ 207 µM) | MIC (Candida albicans): 64 µg/mL (≈ 207 µM) | MIC (Pseudomonas aeruginosa [12]): > 128 µg/mL | MIC (Staphylococcus aureus [13]): 16 µg/mL (≈ 51.7 µM)

O=C1CSC(=S)N1[C@@H](Cc1ccccc1)c1nnc(-c2cccc(Cl)c2)o1
MIC (Staphylococcus aureus [1]): 8 µg/mL (≈ 19.2 µM) | MIC (Staphylococcus aureus [2]): 8 µg/mL (≈ 19.2 µM) | MIC (Escherichia coli [3]): > 128 µg/mL | MIC (Escherichia coli [4]): > 128 µg/mL | MIC (Pseudomonas aeruginosa [5]): > 128 µg/mL | MIC (Streptococcus mutans): 4 µg/mL (≈ 9.62 µM) | MIC (Salmonella typhimurium [6]): > 128 µg/mL | MIC (Staphylococcus aureus [7]): 8 µg/mL (≈ 19.2 µM) | MIC (Salmonella typhimurium [8]): > 128 µg/mL | MIC (Staphylococcus aureus [9]): > 64 µg/mL | MIC (Staphylococcus aureus [10]): 8 µg/mL (≈ 19.2 µM) | MIC (Staphylococcus aureus [11]): 4 µg/mL (≈ 9.62 µM) | MIC (Candida albicans): > 64 µg/mL | MIC (Pseudomonas aeruginosa [12]): > 128 µg/mL | MIC (Staphylococcus aureus [13]): > 64 µg/mL

Cc1cccc(-c2nnc(CN3C(=O)CSC3=S)o2)c1
MIC (Staphylococcus aureus [1]): 32 µg/mL (≈ 105 µM) | MIC (Staphylococcus aureus [2]): 32 µg/mL (≈ 105 µM) | MIC (Escherichia coli [3]): > 128 µg/mL | MIC (Escherichia coli [4]): 16 µg/mL (≈ 52.4 µM) | MIC (Pseudomonas aeruginosa [5]): > 128 µg/mL | MIC (Streptococcus mutans): 8 µg/mL (≈ 26.2 µM) | MIC (Salmonella typhimurium [6]): 128 µg/mL (≈ 419 µM) | MIC (Staphylococcus aureus [7]): 32 µg/mL (≈ 105 µM) | MIC (Salmonella typhimurium [8]): 64 µg/mL (≈ 210 µM) | MIC (Staphylococcus aureus [9]): 32 µg/mL (≈ 105 µM) | MIC (Staphylococcus aureus [10]): 32 µg/mL (≈ 105 µM) | MIC (Staphylococcus aureus [11]): 32 µg/mL (≈ 105 µM) | MIC (Candida albicans): 64 µg/mL (≈ 210 µM) | MIC (Pseudomonas aeruginosa [12]): > 128 µg/mL | MIC (Staphylococcus aureus [13]): 16 µg/mL (≈ 52.4 µM)

COc1c(N2C[C@@H]3CCCN[C@@H]3C2)c(F)cc2c(=O)c(C(=O)O)cn(C3CC3)c12 [MOXIFLOXACIN]
MIC (Staphylococcus aureus [2]): 0.25 µg/mL (≈ 0.623 µM) | MIC (Escherichia coli [3]): 128 µg/mL (≈ 319 µM) | MIC (Pseudomonas aeruginosa [5]): 2 µg/mL (≈ 4.98 µM) | MIC (Streptococcus mutans): 0.25 µg/mL (≈ 0.623 µM) | MIC (Salmonella typhimurium [6]): 0.5 µg/mL (≈ 1.25 µM) | MIC (Salmonella typhimurium [8]): 1 µg/mL (≈ 2.49 µM) | MIC (Staphylococcus aureus [9]): 2 µg/mL (≈ 4.98 µM) | MIC (Candida albicans): 0.5 µg/mL (≈ 1.25 µM)

CCn1cc(C(=O)O)c(=O)c2cc(F)c(N3CCNCC3)cc21 [NORFLOXACIN]
MIC (Staphylococcus aureus [1]): 4 µg/mL (≈ 12.5 µM) | MIC (Staphylococcus aureus [7]): > 64 µg/mL | MIC (Staphylococcus aureus [10]): > 64 µg/mL | MIC (Staphylococcus aureus [11]): 8 µg/mL (≈ 25.1 µM)
